For two compounds, Kd results are on record in paper PMC3552018 (Insect molecular biology, 2012).

This assay concerns the target T1, LUSH (Drosophila melanogaster, UniProt O02372).
T1 sequence (O02372 30-153): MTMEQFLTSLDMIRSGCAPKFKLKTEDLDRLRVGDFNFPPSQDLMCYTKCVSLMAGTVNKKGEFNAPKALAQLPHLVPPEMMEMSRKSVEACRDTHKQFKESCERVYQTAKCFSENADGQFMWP
Type of assay: binding.

SMILES strings stand for the structures.

In the case of `CCC/C=C\C=C\CCCCCCCCCO` [bombykol], the Kd came to 215 nM. This lies in the sub-micromolar range. Under `CCCCCC/C=C\CCCCCCCCCCOC(C)=O` [cVA, 11-cis vaccenyl acetate] stands 108 nM.
